Laboratory results from PMC2937036 (PLoS ONE, 2010).
Entries after “also recorded” stand apart in the source; their conditions may differ. Where a SMILES comes first, the peptide text is derived from it. Bridges are numbered along the chain shown (N, C = ends).

Legend:
in vitro = details: 25% human male serum
Description: To investigate the effects of the modifications on proteolytic susceptibility, the disappearance of the intact peptides incubated in diluted human serum at 37°C was followed by RP-HPLC. […] Incubations were normally done for 9 h and, in some cases, longer.
Peptide stabilities were assayed in diluted serum as previously described. 25% human male serum was centrifuged at 13,000 rpm for 10 min to remove lipids and the supernatant was collected and incubated at 37°C for at least 15 min. The assay was initiated upon the addition of the test peptide to the serum for a final peptide concentration of 5 µM. 200 µL aliquots of the incubations were taken for the following time points: 0, 30, 75, 120, 240, 390 and 540 min. The aliquots were mixed with 40 µL of 15% trichloroacetic acid (TCA) and incubated at 4°C for at least 15 min to precipitate serum proteins. In the case of Com5 and Com6, 5 µL of 1 M NaOH was supplemented to the TCA to prevent peptide precipitation. The supernatant was collected for each sample after centrifugation at 13,000 rpm for 10 min and stored at −20°C. These assays were performed in triplicate.
Reverse phase high performance liquid chromatography (RP-HPLC) analysis was performed with an AKTA Purifier from Amersham Biosciences (Westborough, MA) using an uRPC C2/C18 ST 4.6/100 column from Pharmacia Biotech (SanJose, CA) of the following dimensions: bed length 100 mm, i.d. 4.6 mm, 120Å. Individually thawed samples were injected through a 100 µL loop, after which a linear gradient was run from 100% solution A (0.05% trifluoroacetic acid (TFA) in filtered water) to 100% solution B (0.045% TFA in 90% acetonitrile) with a flow rate at 0.5 mL/min. The relative concentrations of the remaining soluble peptides were analyzed by the integration of the absorbance at 215 nm as a function of retention time using the Analysis module of the Unicorn software package.

[1] = system: Bacillus subtilis ATCC6633; assay: Bactericidal assay (LD99.9), B. subtilis; assay type: cell-based; details: 10 mM phosphate buffer pH 7.0 with 1% TSB, 2 h, 37°C
Description: (§1) The peptides were tested for microbicidal activities against Bacillus subtilis ATCC6633, Escherichia coli ML35, and Staphylococcus aureus 42D as previously described. Suspensions of logarithmically growing test bacteria were incubated on a microtiter plate at a concentration of 10^5 colony-forming units/mL with various peptide dilutions. The medium was 100 µL of 10 mM phosphate buffer pH 7.0 supplemented with 1% (v/v) of tryptic soy broth (TSB). For later assays, human male serum was also added to a final concentration of 25%. 10 µL aliquots were collected at time 0 h and after 2 h of incubation on a rotary shaker (300 rpm) at 37°C. These were plated on blood agar plates and incubated overnight at 37°C. The Lethal Dose concentration (LD99.9) was determined, corresponding to the concentration killing >99.9% of the inoculum at 2 h. These experiments were performed in duplicate.
(§2) For the testing of the peptides' activities in different conditions, e.g. with serum, we use the same cut-off for activity as defined for Minimum Bactericidal Concentration (MBC), i.e. a 1000-fold reduction of the inoculum. However, we designate this peptide concentration with the more general term LD99.9 which can be applied to the specified conditions of the experiments performed here.

[2] = system: Staphylococcus aureus 42D; assay: Bactericidal assay (LD99.9), S. aureus; assay type: cell-based; details: 10 mM phosphate buffer pH 7.0 with 1% TSB, 2 h, 37°C
Description: as §1, §2

Escherichia coli ML35 = assay: Bactericidal assay (LD99.9), E. coli; assay type: cell-based; details: 10 mM phosphate buffer pH 7.0 with 1% TSB, 2 h, 37°C
Description: as §1, §2

[3] = system: Staphylococcus aureus 42D; assay: Bactericidal assay (LD99.9), S. aureus in 25% human serum; assay type: cell-based; details: unit not given (Table 3 uses µM)
Description: In order to be able to make a direct comparison with our serum stability measurements, a few peptides were selected to be tested for antimicrobial activity in 25% human serum (Table 4). […] All LD99.9 values are higher compared to the initial assays in 10 mM sodium phosphate buffer. Contributing factors to this general loss in activity could be the increased ionic concentration, interactions with serum components such as albumin or other proteins, and peptide degradation. Both hexamers with unprotected termini, Lfc1 and Com1, are no longer active while the cyclized short peptides remained fairly antimicrobial. In human serum, Lfc5 and Lfc6 are equally anti-staphylococcal. This reflects a greater loss of activity for Lfc6, but also coincides with the lower serum stability that this peptide has compared to Lfc5 (Fig. 2C). The activities of the cyclized Com peptides were all lowered equally with a 16-fold increase in LD99.9 values compared to activities in serum-excluded media and this agrees with their similar stability profiles (Fig. 2D).
as §1, §2

[4] = molecular target: bovine serum albumin (BSA) (Bos taurus, UniProt P02769); assay: biochemical
Description: (§3) The potential for interactions between various peptides and bovine and human serum albumin (BSA and HSA) were studied by microcalorimetry.
(§4) ITC experiments were performed at 25°C on a Microcal VP-ITC microcalorimeter with data analysis performed with the Microcal Origin software. The sample cell contained 0.1 mM of either BSA or HSA dissolved in 20 mM HEPES, 100 mM NaCl, pH 7.9. The syringe was loaded with 2 mM test peptide in the same buffer, and each titration point resulted from 5 µL injections following an initial 2 µL injection. Separate control experiments were also performed to account for heats of dilution/mixing.

[5] = design: method as in PMID 15853943; details: ITC; cited from earlier work
25% human male serum = details: 37°C, up to 540 min
[6] = molecular target: human serum albumin (HSA) (Homo sapiens, UniProt P02768); assay: biochemical
Chain of human serum albumin (HSA) (P02768 25-609): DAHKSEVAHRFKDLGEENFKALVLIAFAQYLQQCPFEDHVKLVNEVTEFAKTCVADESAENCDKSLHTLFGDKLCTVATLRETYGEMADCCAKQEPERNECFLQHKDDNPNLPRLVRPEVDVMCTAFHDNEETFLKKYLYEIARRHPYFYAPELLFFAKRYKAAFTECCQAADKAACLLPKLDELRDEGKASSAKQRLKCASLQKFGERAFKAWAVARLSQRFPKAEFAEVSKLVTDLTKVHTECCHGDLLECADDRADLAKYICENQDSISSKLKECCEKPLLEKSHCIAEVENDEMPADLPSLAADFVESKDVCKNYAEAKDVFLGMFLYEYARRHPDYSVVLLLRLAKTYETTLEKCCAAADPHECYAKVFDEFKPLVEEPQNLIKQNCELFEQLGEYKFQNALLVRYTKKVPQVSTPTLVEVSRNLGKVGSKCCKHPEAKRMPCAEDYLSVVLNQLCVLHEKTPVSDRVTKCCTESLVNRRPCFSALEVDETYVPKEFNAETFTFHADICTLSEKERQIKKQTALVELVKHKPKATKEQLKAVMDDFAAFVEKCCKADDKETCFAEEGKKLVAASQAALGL
Description: as §3, §4

Chain of bovine serum albumin (BSA) (P02769 25-607): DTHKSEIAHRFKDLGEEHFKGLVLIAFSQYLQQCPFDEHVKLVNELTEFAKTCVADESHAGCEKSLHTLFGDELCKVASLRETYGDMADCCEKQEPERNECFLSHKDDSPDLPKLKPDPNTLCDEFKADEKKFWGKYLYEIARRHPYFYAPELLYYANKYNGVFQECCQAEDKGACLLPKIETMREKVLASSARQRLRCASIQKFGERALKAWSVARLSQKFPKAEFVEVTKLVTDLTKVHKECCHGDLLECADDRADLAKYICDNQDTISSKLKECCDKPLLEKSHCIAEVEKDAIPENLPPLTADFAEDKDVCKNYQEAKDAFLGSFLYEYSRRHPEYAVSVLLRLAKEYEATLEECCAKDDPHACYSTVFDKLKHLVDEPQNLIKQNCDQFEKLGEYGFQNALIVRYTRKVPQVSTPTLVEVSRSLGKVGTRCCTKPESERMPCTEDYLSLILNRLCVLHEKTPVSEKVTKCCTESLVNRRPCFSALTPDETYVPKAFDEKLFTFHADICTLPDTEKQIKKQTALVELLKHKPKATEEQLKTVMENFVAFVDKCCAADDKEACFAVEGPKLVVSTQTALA

Molecule	99.9% Lethal Dose Concentration (LD99.9) B. subtilis [1] [µM]	99.9% Lethal Dose Concentration (LD99.9) S. aureus [2] [µM]	99.9% Lethal Dose Concentration (LD99.9) E. coli (Escherichia coli ML35) [µM]	fragment found (25% human male serum)	other results
CC(=O)N[C@H]1CSSC[C@@H](C(N)=O)NC(=O)[C@H](Cc2ccccc2)NC(=O)[C@H](CCCNC(=N)N)NC(=O)[C@H](Cc2c[nH]c3ccccc23)NC(=O)[C@H](Cc2c[nH]c3ccccc23)NC(=O)[C@H](CCCNC(=N)N)NC(=O)[C@H](CCCNC(=N)N)NC1=O [Com7, CH3CO-CRRWWRFC-NH2] (Ac-CRRWWRFC-NH2; disulfide 1-8)	≤0.45	1.9	30	–	remaining at 6.5 h, 5 µM (in vitro; male, human): ~50%; LD99.9 anti-S. aureus in 25% human serum [3]: 30; Kd [4]: 210 µM
CC(=O)N[C@@H](CCCNC(=N)N)C(=O)N[C@@H](CCCNC(=N)N)C(=O)N[C@@H](Cc1c[nH]c2ccccc12)C(=O)N[C@@H](Cc1c[nH]c2ccccc12)C(=O)N[C@@H](CCCNC(=N)N)C(=O)N[C@@H](Cc1ccccc1)C(N)=O [Com4, CH3CO-RRWWRF-NH2] (Ac-RRWWRF-NH2)	0.9	7.5	7.5	–	half-life at 5 µM (in vitro; male, human): ~1.5 h; affinity for negatively charged membranes [5]: micromolar affinity
-RRWQWRMKKLG- (cyclo(RRWQWRMKKLG); SMILES CSCC[C@@H]1NC(=O)[C@H](CCCNC(=N)N)NC(=O)[C@H](Cc2c[nH]c3ccccc23)NC(=O)[C@H](CCC(N)=O)NC(=O)[C@H](Cc2c[nH]c3ccccc23)NC(=O)[C@H](CCCNC(=N)N)NC(=O)[C@H](CCCNC(=N)N)NC(=O)CNC(=O)[C@H](CC(C)C)NC(=O)[C@H](CCCCN)NC(=O)[C@H](CCCCN)NC1=O)	–	–	–	Single Cut, 75 min	–
RRWQWRMKKLG	–	–	–	RWQWRM, 75 min; also recorded: WQWRM, 75 min	–
-RRWQWR- (cyclo(RRWQWR); SMILES N=C(N)NCCC[C@@H]1NC(=O)[C@H](CCCNC(=N)N)NC(=O)[C@H](Cc2c[nH]c3ccccc23)NC(=O)[C@H](CCC(N)=O)NC(=O)[C@H](Cc2c[nH]c3ccccc23)NC(=O)[C@H](CCCNC(=N)N)NC1=O)	–	–	–	Single Cut, 75 min	–
Ac-RRWWRF-NH2	–	–	–	CH3CO-RRWW, 75 min; also recorded: CH3CO-RRW, 75 min	–
Ac-RRWQWR-OH	–	–	–	CH3CO-RRWQ, 75 min; also recorded: CH3CO-RRW, 75 min	–
CSCC[C@@H]1NC(=O)[C@H](CCCNC(=N)N)NC(=O)[C@H](Cc2c[nH]c3ccccc23)NC(=O)[C@H](CCC(N)=O)NC(=O)[C@H](Cc2c[nH]c3ccccc23)NC(=O)[C@H](CCCNC(=N)N)NC(=O)[C@H](CCCNC(=N)N)NC(=O)CNC(=O)[C@H](CC(C)C)NC(=O)[C@H](CCCCN)NC(=O)[C@H](CCCCN)NC1=O [Lfc8, -RRWQWRMKKLG-] (cyclo(RRWQWRMKKLG))	≤0.45	15	3.8	–	Kd [6]: 150 µM
Ac-RRWQWR-NH2	–	–	–	CH3CO-RRWQ, 75 min; also recorded: CH3CO-RRW, 75 min	–
N=C(N)NCCC[C@H](NC(=O)[C@H](Cc1c[nH]c2ccccc12)NC(=O)[C@H](CCC(N)=O)NC(=O)[C@H](Cc1c[nH]c2ccccc12)NC(=O)[C@H](CCCNC(=N)N)NC(=O)[C@@H](N)CCCNC(=N)N)C(=O)O [Lfc1, RRWQWR] (H-RRWQWR-OH)	7.5	30	60	–	intact peptide after 2 h (in vitro; 37°C, 2 h): completely gone; half-life at 5 µM (in vitro; male, human): < 0.5 h; LD99.9 anti-S. aureus in 25% human serum [3]: >120
